Where a name gives a salt, the structure may show the parent alone. Read-outs that look alike come from different tables or passages of the source.

The values below come from US20230150974A1 (Foghorn Therapeutics Inc., priority 2020, published 2023).

In one experiment the target is T1, HiBiT-BRM (Homo sapiens, UniProt P51531).
T1 construct: expressed in transfected cells
The experiment is described as follows: HiBiT-BRM cell-based degradation assay (Nano-Glo HiBiT Lytic Detection). The gist of the method:
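Luminescence from HiBiT–LgBiT complementation in lysates of a stable HiBiT-BRM HeLa line measured after 24 h compound exposure. Degradation expressed as percent relative to DMSO-treated cells and cells given 2 μM of a known BRM/BRG1 degrader.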
(HiBiT is a short tag that completes a luciferase, so light tracks the accessible tagged protein.)

A further experiment concerns the target T2, HiBit-BRG1 (Homo sapiens, UniProt P51532).
T2 construct: expressed in transfected cells
The experiment in a line: HiBit-BRG1 cell-based degradation assay (Nano-Glo HiBiT Lytic Detection). The gist of the method: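 Seed 5000 HeLa HiBit-BRG1/LgBit cells per well; treat 24 h; equilibrate 15 min at room temperature; add Nano-Glo HiBiT lytic reagent, shake 10 min, read luminescence. Percent degradation is scaled between DMSO and 2 μM reference degrader wells.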

[1] abbreviates: HeLa cells expressing HiBiT-BRM, 24 h.
The mark [2] stands for this setting: HeLa cells expressing HiBiT-BRM, 24 h; read-out: BRM HiBit Degradation IC50.
[3] abbreviates: HeLa cells expressing HiBit-BRG1 and LgBit, 24 h; read-out: BRG1 HiBit Degradation IC50.
Setting [4] is: HeLa cells expressing HiBit-BRG1 and LgBit, 24 h; read-out: BRG1 HiBit Degradation Maximum (%).

T2 sequence (P51532 whole entry): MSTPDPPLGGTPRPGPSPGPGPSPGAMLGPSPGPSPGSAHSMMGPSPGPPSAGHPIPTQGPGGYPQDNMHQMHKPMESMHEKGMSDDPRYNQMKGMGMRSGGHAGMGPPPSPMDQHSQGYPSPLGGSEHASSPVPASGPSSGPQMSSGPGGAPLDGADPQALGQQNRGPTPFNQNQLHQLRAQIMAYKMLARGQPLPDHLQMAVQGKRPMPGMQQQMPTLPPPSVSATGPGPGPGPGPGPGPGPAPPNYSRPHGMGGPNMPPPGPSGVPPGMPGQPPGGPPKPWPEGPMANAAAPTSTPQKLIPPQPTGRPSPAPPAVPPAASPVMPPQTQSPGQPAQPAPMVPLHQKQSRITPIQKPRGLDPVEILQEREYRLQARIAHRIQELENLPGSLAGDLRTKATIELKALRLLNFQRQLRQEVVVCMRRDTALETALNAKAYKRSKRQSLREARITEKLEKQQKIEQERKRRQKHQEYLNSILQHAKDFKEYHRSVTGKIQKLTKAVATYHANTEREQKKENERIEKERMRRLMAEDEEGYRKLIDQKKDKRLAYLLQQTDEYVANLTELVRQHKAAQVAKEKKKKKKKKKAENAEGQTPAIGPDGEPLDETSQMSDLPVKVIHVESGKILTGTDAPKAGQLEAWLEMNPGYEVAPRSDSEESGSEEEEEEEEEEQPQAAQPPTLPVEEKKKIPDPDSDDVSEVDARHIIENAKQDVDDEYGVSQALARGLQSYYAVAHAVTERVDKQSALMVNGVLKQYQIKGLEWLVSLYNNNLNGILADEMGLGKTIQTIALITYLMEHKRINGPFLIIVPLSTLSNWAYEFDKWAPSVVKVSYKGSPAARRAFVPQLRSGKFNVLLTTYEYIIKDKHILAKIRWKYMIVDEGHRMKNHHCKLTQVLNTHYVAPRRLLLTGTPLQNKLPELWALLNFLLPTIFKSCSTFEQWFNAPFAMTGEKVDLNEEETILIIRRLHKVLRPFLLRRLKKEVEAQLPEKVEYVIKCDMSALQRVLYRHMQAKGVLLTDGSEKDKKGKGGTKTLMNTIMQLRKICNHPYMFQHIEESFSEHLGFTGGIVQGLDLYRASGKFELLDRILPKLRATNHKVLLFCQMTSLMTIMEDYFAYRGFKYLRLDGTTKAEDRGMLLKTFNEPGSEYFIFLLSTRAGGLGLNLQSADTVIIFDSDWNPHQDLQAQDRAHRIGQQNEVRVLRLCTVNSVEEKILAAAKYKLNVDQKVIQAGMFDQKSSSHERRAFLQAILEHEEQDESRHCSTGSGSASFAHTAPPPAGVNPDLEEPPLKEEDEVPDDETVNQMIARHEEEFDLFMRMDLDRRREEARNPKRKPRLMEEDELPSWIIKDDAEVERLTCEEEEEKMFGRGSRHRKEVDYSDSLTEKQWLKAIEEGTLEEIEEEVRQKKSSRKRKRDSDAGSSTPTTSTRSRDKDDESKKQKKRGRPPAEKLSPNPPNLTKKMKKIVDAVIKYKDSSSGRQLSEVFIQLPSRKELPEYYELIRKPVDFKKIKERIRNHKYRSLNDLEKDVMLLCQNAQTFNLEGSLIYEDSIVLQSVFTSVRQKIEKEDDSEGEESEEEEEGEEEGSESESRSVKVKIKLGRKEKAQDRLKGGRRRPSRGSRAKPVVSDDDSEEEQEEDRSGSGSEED
T1 sequence (P51531 whole entry): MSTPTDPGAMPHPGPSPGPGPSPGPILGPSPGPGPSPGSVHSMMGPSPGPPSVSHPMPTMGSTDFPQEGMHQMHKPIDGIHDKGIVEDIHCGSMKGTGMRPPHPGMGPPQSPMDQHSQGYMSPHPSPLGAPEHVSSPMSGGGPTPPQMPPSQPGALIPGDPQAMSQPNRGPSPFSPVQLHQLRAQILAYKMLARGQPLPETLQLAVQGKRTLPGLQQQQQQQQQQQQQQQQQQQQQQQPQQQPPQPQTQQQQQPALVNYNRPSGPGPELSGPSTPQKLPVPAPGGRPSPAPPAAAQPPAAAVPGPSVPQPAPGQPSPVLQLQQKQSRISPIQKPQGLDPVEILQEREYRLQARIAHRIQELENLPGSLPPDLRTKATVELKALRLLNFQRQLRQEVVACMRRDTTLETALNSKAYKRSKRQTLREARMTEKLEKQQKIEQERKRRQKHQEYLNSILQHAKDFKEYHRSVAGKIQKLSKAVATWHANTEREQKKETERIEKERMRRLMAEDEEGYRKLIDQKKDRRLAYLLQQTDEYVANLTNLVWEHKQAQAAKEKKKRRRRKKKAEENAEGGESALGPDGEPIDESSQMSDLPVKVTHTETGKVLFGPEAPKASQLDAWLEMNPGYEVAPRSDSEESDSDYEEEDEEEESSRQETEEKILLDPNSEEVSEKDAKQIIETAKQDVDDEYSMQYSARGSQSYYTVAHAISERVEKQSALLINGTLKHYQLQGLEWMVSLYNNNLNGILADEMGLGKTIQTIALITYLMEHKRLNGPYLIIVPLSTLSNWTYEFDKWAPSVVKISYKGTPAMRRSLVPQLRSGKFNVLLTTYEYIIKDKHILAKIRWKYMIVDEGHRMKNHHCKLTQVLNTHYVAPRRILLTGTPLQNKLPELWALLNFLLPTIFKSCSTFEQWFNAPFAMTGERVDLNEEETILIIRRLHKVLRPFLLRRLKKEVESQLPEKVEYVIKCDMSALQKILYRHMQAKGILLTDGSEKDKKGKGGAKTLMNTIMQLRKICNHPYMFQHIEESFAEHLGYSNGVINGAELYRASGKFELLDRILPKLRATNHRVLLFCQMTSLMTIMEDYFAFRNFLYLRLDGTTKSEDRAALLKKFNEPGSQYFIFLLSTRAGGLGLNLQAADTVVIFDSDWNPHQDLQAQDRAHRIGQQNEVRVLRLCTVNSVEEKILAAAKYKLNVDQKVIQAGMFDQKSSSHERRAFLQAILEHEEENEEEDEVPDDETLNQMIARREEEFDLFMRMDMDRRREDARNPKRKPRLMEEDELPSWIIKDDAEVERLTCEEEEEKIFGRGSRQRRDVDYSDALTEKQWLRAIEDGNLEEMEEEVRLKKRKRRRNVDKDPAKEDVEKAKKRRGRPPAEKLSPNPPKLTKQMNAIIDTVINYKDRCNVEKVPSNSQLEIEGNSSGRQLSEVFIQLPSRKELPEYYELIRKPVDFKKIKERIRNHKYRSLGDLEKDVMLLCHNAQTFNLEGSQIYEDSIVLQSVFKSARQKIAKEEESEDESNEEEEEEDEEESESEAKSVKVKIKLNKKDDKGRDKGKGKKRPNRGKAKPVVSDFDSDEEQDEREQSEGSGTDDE

For `Cc1ncsc1-c1ccc([C@H](C)NC(=O)[C@@H]2C[C@@H](O)CN2C(=O)[C@@H](c2cc(OCCNCc3ccc(CCOc4cc(-c5ccccc5O)nnc4N)cc3)no2)C(C)C)cc1` [Compound 205, (2S,4R)-1-[(2R)-2-[3-[2-([[4-(2-[[3-amino-6-(2-hydroxyphenyl)pyridazin-4-yl]oxy]ethyl)phenyl]methyl]amino)ethoxy]-1,2-oxazol-5-yl]-3-methylbutanoyl]-4-hydroxy-N-[(1S)-1-[4-(4-methyl-1,3-thiazol-5-yl)phenyl]ethyl]pyrrolidine-2-carboxamide], the “BRM HiBit Degradation Maximum (%)” value at HiBiT-BRM (setting [1]) is reported as “A (“A” indicates maximum degradation ≥75%)”. For the same compound, the DC50 on HiBiT-BRM (setting [2]) is below 10 nM; on HiBit-BRG1 (setting [3]), above 100 nM. For the same compound, the Dmax on HiBit-BRG1 (setting [4]) is above 75%.
The matching figures for `Cc1ncsc1-c1ccc(CNC(=O)[C@@H]2C[C@@H](O)CN2C(=O)[C@@H](NC(=O)CCCCCCCCCCCC(=O)NCc2ccc(CCOc3cc(-c4ccccc4O)nnc3N)cc2)C(C)(C)C)cc1` [Compound 31, N1-(4-(2-((3-amino-6-(2-hydroxyphenyl)pyridazin-4-yl)oxy)ethyl)benzyl)-N13-((S)-1-((2S,4R)-4-hydroxy-2-((4-(4-methylthiazol-5-yl)benzyl)carbamoyl)pyrrolidin-1-yl)-3,3-dimethyl-1-oxobutan-2-yl)tridecanediamide]: “B (“B” indicates maximum degradation ≥50%)”, above 10 nM, above 1000 nM and below 50%.
Take `Cc1ncsc1-c1ccc([C@H](C)NC(=O)[C@@H]2C[C@@H](O)CN2C(=O)[C@@H](c2cc(OCCN3CC4CN(C(=O)c5ccc(CCOc6cc(-c7ccccc7O)nnc6N)cc5)C4C3)no2)C(C)C)cc1` (stereo partly drawn) [Compound 240, (2S,4R)-1-((2R)-2-(3-(2-(6-(4-(2-((3-amino-6-(2-hydroxyphenyl)pyridazin-4-yl)oxy)ethyl)benzoyl)-3,6-diazabicyclo[3.2.0]heptan-3-yl)ethoxy)isoxazol-5-yl)-3-methylbutanoyl)-4-hydroxy-N-((S)-1-(4-(4-methylthiazol-5-yl)phenyl)ethyl)pyrrolidine-2-carboxamide]: the “BRM HiBit Degradation Maximum (%)” value on HiBiT-BRM (setting [1]) was “A (“A” indicates maximum degradation ≥75%)”. The DC50 at HiBiT-BRM (setting [2]) and on HiBit-BRG1 (setting [3]) was above 100 nM each time. Further, the Dmax at HiBit-BRG1 (setting [4]) is above 75%.
As to `Nc1nnc(-c2ccccc2O)cc1OCCc1ccc(CNCCCNc2cccc3c2C(=O)N(C2CCC(=O)NC2=O)C3=O)cc1` (stereo not drawn) [Compound 108, 4-[[3-([[4-(2-[[3-amino-6-(2-hydroxyphenyl)pyridazin-4-yl]oxy]ethyl)phenyl]methyl]amino)propyl]amino]-2-(2,6-dioxopiperidin-3-yl)isoindole-1,3-dione, formic acid salt], the “BRM HiBit Degradation Maximum (%)” value at HiBiT-BRM (setting [1]) is “B (“B” indicates maximum degradation ≥50%)”. Besides, the DC50 at HiBiT-BRM (setting [2]) was above 10 nM; at HiBit-BRG1 (setting [3]), above 1000 nM. In addition, on HiBit-BRG1 (setting [4]), the Dmax is above 50%.
On to `Cc1ncsc1-c1ccc(CNC(=O)[C@@H]2C[C@@H](O)CN2C(=O)[C@@H](NC(=O)CCN2CCN(CC(=O)NCc3ccc(CCOc4cc(-c5ccccc5O)nnc4N)cc3)CC2)C(C)(C)C)cc1` [Compound 179, (2S,4R)-1-[(2S)-2-(3-[4-[([[4-(2-[[3-amino-6-(2-hydroxyphenyl)pyridazin-4-yl]oxy]ethyl)phenyl]methyl]carbamoyl)methyl]piperazin-1-yl]propanamido)-3,3-dimethylbutanoyl]-4-hydroxy-N-[[4-(4-methyl-1,3-thiazol-5-yl)phenyl]methyl]pyrrolidine-2-carboxamide], for which the “BRM HiBit Degradation Maximum (%)” value on HiBiT-BRM (setting [1]) was “C (“C” indicates maximum degradation <50%)”. Further, the DC50 on HiBiT-BRM (setting [2]) and on HiBit-BRG1 (setting [3]) was above 1000 nM each time. Besides, at HiBit-BRG1 (setting [4]), the Dmax is below 50%.
In the case of `Nc1nnc(-c2ccccc2O)cc1OCCc1ccc(CNC(=O)CCCCOc2cccc3c2C(=O)N(C2CCC(=O)NC2=O)C3=O)cc1` (stereo not drawn) [Compound 67, N-[[4-(2-[[3-amino-6-(2-hydroxyphenyl)pyridazin-4-yl]oxy]ethyl)phenyl]methyl]-5-[[2-(2,6-dioxopiperidin-3-yl)-1,3-dioxoisoindol-4-yl]oxy]pentanamide], at HiBiT-BRM (setting [1]), the “BRM HiBit Degradation Maximum (%)” value is given as “A (“A” indicates maximum degradation ≥75%)”. Besides, the DC50 was above 100 nM on HiBiT-BRM (setting [2]) and above 1000 nM on HiBit-BRG1 (setting [3]). On HiBit-BRG1 (setting [4]), the Dmax is below 50%.
`Cc1ncsc1-c1ccc(CNC(=O)[C@@H]2C[C@@H](O)CN2C(=O)[C@@H](NC(=O)CCN2CCC3(CCN(CCC(=O)NCc4ccc(CCOc5cc(-c6ccccc6O)nnc5N)cc4)CC3)CC2)C(C)(C)C)cc1` [Compound 252, (2S,4R)-1-((S)-2-(3-(9-(3-((4-(2-((3-amino-6-(2-hydroxyphenyl)pyridazin-4-yl)oxy)ethyl)benzyl)amino)-3-oxopropyl)-3,9-diazaspiro[5.5]undecan-3-yl)propanamido)-3,3-dimethylbutanoyl)-4-hydroxy-N-(4-(4-methylthiazol-5-yl)benzyl)pyrrolidine-2-carboxamide]: the “BRM HiBit Degradation Maximum (%)” value on HiBiT-BRM (setting [1]) was “C (“C” indicates maximum degradation <50%)”. Moreover, the DC50 at HiBiT-BRM (setting [2]) and on HiBit-BRG1 (setting [3]) was above 1000 nM each time. Moreover, the Dmax at HiBit-BRG1 (setting [4]) is below 50%.
Take `Nc1nnc(-c2ccccc2O)cc1OCCc1ccc(C(=O)NCCN2CCN(c3cccc4c3C(=O)N(C3CCC(=O)NC3=O)C4=O)CC2)cc1` (stereo not drawn) [Compound 149, 4-(2-((3-amino-6-(2-hydroxyphenyl)pyridazin-4-yl)oxy)ethyl)-N-(2-(4-(2-(2,6-dioxopiperidin-3-yl)-1,3-dioxoisoindolin-4-yl)piperazin-1-yl)ethyl)benzamide]: the “BRM HiBit Degradation Maximum (%)” value at HiBiT-BRM (setting [1]) was “A (“A” indicates maximum degradation ≥75%)”. Besides, the DC50 on HiBiT-BRM (setting [2]) and on HiBit-BRG1 (setting [3]) was above 100 nM throughout. The Dmax at HiBit-BRG1 (setting [4]) was above 50%.
For `Cc1ncsc1-c1ccc([C@H](C)NC(=O)[C@@H]2C[C@@H](O)CN2C(=O)[C@@H](c2cc(OCCNCCCCCCCCCCC(=O)NCc3ccc(CCOc4cc(-c5ccccc5O)nnc4N)cc3)no2)C(C)C)cc1` [Compound 212, (2S,4R)-1-[(2R)-2-[3-(2-[[10-([[4-(2-[[3-amino-6-(2-hydroxyphenyl)pyridazin-4-yl]oxy]ethyl)phenyl]methyl]carbamoyl)decyl]amino]ethoxy)-1,2-oxazol-5-yl]-3-methylbutanoyl]-4-hydroxy-N-[(1S)-1-[4-(4-methyl-1,3-thiazol-5-yl)phenyl]ethyl]pyrrolidine-2-carboxamide], the “BRM HiBit Degradation Maximum (%)” value at HiBiT-BRM (setting [1]) was “A (“A” indicates maximum degradation ≥75%)”. Besides, the values for the DC50 at HiBiT-BRM (setting [2]) and at HiBit-BRG1 (setting [3]) were above 10 nM and above 1000 nM, respectively. Moreover, at HiBit-BRG1 (setting [4]), the Dmax is below 50%.
Regarding `Cc1ncsc1-c1ccc(CNC(=O)[C@@H]2C[C@@H](O)CN2C(=O)[C@@H](NC(=O)CCN2C[C@H]3CC[C@@H](C2)N3C(=O)c2ccc(CCOc3cc(-c4ccccc4O)nnc3N)cc2)C(C)(C)C)cc1` [Compound 226, (2S,4R)-1-((2S)-2-(3-(8-(4-(2-((3-amino-6-(2-hydroxyphenyl)pyridazin-4-yl)oxy)ethyl)benzoyl)-3,8-diazabicyclo[3.2.1]octan-3-yl)propanamido)-3,3-dimethylbutanoyl)-4-hydroxy-N-(4-(4-methylthiazol-5-yl)benzyl)pyrrolidine-2-carboxamide], the “BRM HiBit Degradation Maximum (%)” value on HiBiT-BRM (setting [1]) was “B (“B” indicates maximum degradation ≥50%)”. For the same compound, the DC50 on HiBiT-BRM (setting [2]) and at HiBit-BRG1 (setting [3]) was above 1000 nM in each case. In addition, the Dmax on HiBit-BRG1 (setting [4]) is below 50%.
As to `Nc1nnc(-c2ccccc2O)cc1OCCc1ccc(CNCCCCOc2cccc3c2C(=O)N(C2CCC(=O)NC2=O)C3=O)cc1` (stereo not drawn) [Compound 121, 4-(4-((4-(2-((3-amino-6-(2-hydroxyphenyl)pyridazin-4-yl)oxy)ethyl)benzyl)amino)butoxy)-2-(2,6-dioxopiperidin-3-yl)isoindoline-1,3-dione], the “BRM HiBit Degradation Maximum (%)” value on HiBiT-BRM (setting [1]) was “C (“C” indicates maximum degradation <50%)”. For the same compound, the DC50 at HiBiT-BRM (setting [2]) and at HiBit-BRG1 (setting [3]) was above 1000 nM throughout. In addition, at HiBit-BRG1 (setting [4]), the Dmax was below 50%.
As to `Nc1nnc(-c2ccccc2O)cc1OCCc1ccc(CNC(=O)NCCCOc2cccc3c2C(=O)N(C2CCC(=O)NC2=O)C3=O)cc1` (stereo not drawn) [Compound 8, 1-(4-(2-((3-amino-6-(2-hydroxyphenyl)pyridazin-4-yl)oxy)ethyl)benzyl)-3-(3-((2-(2,6-dioxopiperidin-3-yl)-1,3-dioxoisoindolin-4-yl)oxy)propyl)urea], the “BRM HiBit Degradation Maximum (%)” value on HiBiT-BRM (setting [1]) is on record as “B (“B” indicates maximum degradation ≥50%)”. Also, the DC50 was above 1000 nM on HiBiT-BRM (read-out: BRM HiBit Degradation IC50; HeLa cells expressing HiBiT-BRM, 24 h); above 1000 nM on HiBit-BRG1 (read-out: BRG1 HiBit Degradation IC50; HeLa cells expressing HiBit-BRG1 and LgBit, 24 h).
Take `Cc1ncsc1-c1ccc([C@H](C)NC(=O)[C@@H]2C[C@@H](O)CN2C(=O)[C@@H](NC(=O)CCCCCCCCCCCCCC(=O)NCc2ccc(CCOc3cc(-c4ccccc4O)nnc3N)cc2)C(C)C)cc1` [Compound 246, N1-(4-(2-((3-amino-6-(2-hydroxyphenyl)pyridazin-4-yl)oxy)ethyl)benzyl)-N15-((S)-1-((2S,4R)-4-hydroxy-2-(((S)-1-(4-(4-methylthiazol-5-yl)phenyl)ethyl)carbamoyl)pyrrolidin-1-yl)-3-methyl-1-oxobutan-2-yl)pentadecanediamide]: the “BRM HiBit Degradation Maximum (%)” value on HiBiT-BRM (setting [1]) was “A (“A” indicates maximum degradation ≥75%)”. Also, the DC50 is above 10 nM on HiBiT-BRM (setting [2]) and above 1000 nM on HiBit-BRG1 (setting [3]). Moreover, at HiBit-BRG1 (setting [4]), the Dmax is below 50%.
